Reference: US20040121474A1, “Detection and evaluation of chemically-mediated and ligand-mediated t-cell activation using optophoretic analysis” (Genoptix, Inc, priority 2002, published 2004)
Counter-ions that a name gives are not always drawn. Like-named read-outs stand apart in the source and are kept apart here. Values belong to the molecule of their own block, whether it stands above or below them.

Assays:
[1] = tested on: K-562, BV-173, EM-3, and U-937 cell lines; experiment: Fast scan analysis, effect of Gleevec; type: cell-based; settings: 1 μM Gleevec, 48 hours, U-937 cells excepted
From the text: (§1) FIGS. 30A and 30B show optical interrogation of a group of cells 610 using a fast scan analysis. In this method, a moving optical gradient 612 (laser beam) in the form of a line is moved relative to the cells 610. […] Instead, an image can be taken of the cells 610 prior to the scan to determine the starting position of each cell 610. […] The distances traveled can be obtained by images taken of the cells 610 before and after the scanning process. The optical gradient 612 is moved at a speed that is higher than the escape velocity of all the cells 610 within the group. In this manner, all of the cells 610 are left behind the moving optical gradient 612. In an alternate fast scan embodiment, the cells 610 are initially lined up at a starting position A. After aligning the cells 610, the optical gradient 612 is rapidly moved and their distance of travel is measured by optical imaging. It should be understood that fast scan analysis may include multiple scans or “sweeps” of the cells 610. Generally, it has been observed that multiple scans produce larger cell movements.

[2] = tested on: K562, BV-173, EM-3, and U-937 cells; experiment: Escape velocity, effect of Gleevec; type: cell-based; settings: 72 hours after exposure, all four cell types
From the text: The U-937 cells have no copies of the gene. The K-562 line of cells has, on average, one copy of the gene per cell. The BV-173 line of cells has, on average, three copies of the gene per cell. The EM-3 cell line has, on average, five copies of the gene per cell. […] FIG. 44 illustrates the measured escape velocities (average) for each of the four cell types. […] In addition, the decrease in escape velocity for the Gleevec-treated cells was more pronounced in those cell lines that had higher copy numbers of the Bcr-Abl gene.

[3] = tested on: Chang liver cells; type: cell-based; settings: human, 1 μm
From the text: as §1
This experiment is designed to test the effect of ketoconazole on human liver cells. Ketoconazole induces toxicity in liver cells. The sample cells were Chang liver cells. The concentration of ketoconazole used to treat the cells was 1 μm. […]

[4] = tested on: Chang liver cells; experiment: Escape velocity, toxicity of ketoconazole to liver cells; type: cell-based, human; settings: 1 μm of ketoconazole, 1.5 hours of treatment
Protocol: This experiment is designed to test the effect of ketoconazole on human liver cells. Ketoconazole induces toxicity in liver cells. The sample cells were Chang liver cells. The concentration of ketoconazole used to treat the cells was 1 μm. Escape velocity and fast scan protocols were applied to determine the impact, if any, of ketoconazole treatment. […] Consequently, Optophoresis was able to detect an effect on the escape velocity of treated cells within 1.5 hours of exposure to ketoconazole. FIGS. 44-45 show the fast scan results of ketoconazole-treated Chang liver cells. […] The ketoconazole-treated cells generally traveled a smaller distance as compared to the non-treated control.

[5] = tested on: U937 cells
Protocol: This experiment is designed to compare the effects of two concentrations of sodium salicylate on U937 cells. Sodium salicylate was prepared at two concentrations: 20 mM and 5 mM. The escape velocities of the cells was tested at 5 hours, 24 hours and 47 hours. At each timepoint, 30 μl of sample was pelleted at 5,000 rpm for 5 minutes and then resuspended in PBS/1% BSA and trypan blue.

[6] = tested on: CD11b expression in HL-60 cells; experiment: FACS CD11b expression profile; type: cell-based; settings: 1% DMSO
Protocol: (§2) Fast scan analysis was also performed on HL-60 cells that were treated with PMA and DMSO. A time course evaluation of PMA treated HL-60 cells was performed with fast scan data taken at 16 hours, 24 hours, 40 hours, and 72 hours post-treatment with 400 ng/ml PMA. A control sample of HL-60 cells was also tested using EtOH as the vehicle for purposes of comparing the differentiated cells with the undifferentiated HL-60 cells. The PMA-treated and control cells were harvested and trypsinized. The samples were then resuspended in PBS/1% BSA. A set of samples was also obtained and left as pellets at 4° C. for subsequent FACS analysis.
FIG. 145 illustrates a histogram of the travel distance of the control cells as well as the PMA-treated cells at 16 hours, 24 hours, 40 hours, and 72 hours post-treatment. FIG. 146 illustrates the mean travel distances of the control cells as well as the PMA-treated cells at 16 hours, 24 hours, 40 hours, and 72 hours post-treatment. FIG. 147 illustrates the FACS CD11b expression profile in PMA-treated HL-60 cells as well as the control. CD11b is a known marker of cellular differentiation and is expressed on the surface of differentiating cells. […] The data illustrate that Optophoretic analysis can be used as an assay for the detection and quantification of cellular differentiation. […]

[7] = tested on: HL-60 cells; experiment: Fast scan analysis, differentiation of HL-60 cells; type: cell-based; settings: 1% DMSO
Protocol: as §2
A time course evaluation of DMSO treated HL-60 cells was performed with fast scan data taken at 16 hours, 24 hours, 40 hours, and 70 hours post-treatment with 1% DMSO. A control sample of HL-60 cells was also tested for purposes of comparing the differentiated cells with the undifferentiated HL-60 cells. The DMSO-treated and control cells were then harvested and resuspended in PBS/1% BSA. A set of samples was also obtained and left as pellets at 4° C. for subsequent FACS analysis.

[8] = tested on: CEM/C2; settings: CEM/C2 cell line obtained from ATCC; cited from earlier work
[9] = tested on: U937 cells; experiment: Escape velocity, characterization of topoisomerase inhibitors
[10] = tested on: CCRF-CEM; experiment: Escape velocity, topotecan on sensitive cell line; type: cell-based; settings: 10 μM topotecan, 6 hours
Protocol: In a fifth experiment, two different cell lines obtained from ATCC which have varying degrees of sensitivity to topoisomerase I inhibitors such as camptothecin and topotecan were subject to Optophoretic analysis. A group of cells from a parental cell line CCRF-CEM that is sensitive to camptothecin and topotecan were incubated for 6 hours with 10 μM topotecan. Another group of cells from the cell line CEM/C2, which are 970-fold less sensitive to camptothecin and topotecan, were also incubated for 6 hours with 10 μM topotecan. Control cells from both the CCRF-CEM and CEM/C2 cell lines were also tested. […] Escape velocity measurements were then taken using a 100 mW laser with a diameter of 28 pixels. […] Optophoretic analysis was thus able to score cross-resistance of camptothecin-resistant cell lines to topotecan, an analog of camptothecin.

[11] = tested on: U937 cells; experiment: Escape velocity, PMA inhibition by bisindolymaleimide; type: cell-based; settings: for Escape velocity Ave.: four hours
From the text: The objective of this experiment was to test the effect of bisindolymaleimide on cells exposed to PMA. Bisindolymaleimide is a Protein Kinase C inhibitor and should block the effect of PMA on U937 cells and their escape velocities. As shown in this and prior experiments, exposure of U937 cells to PMA results in an increase in the escape velocity of the cells. Therefore, it is anticipated that addition of bisindolymaleimide will reduce or eliminate the increase in escape velocity caused by PMA. This has in fact been observed in the data shown below.
Bisindolymaleimide was tested at two concentrations: 200 ng/ml and 50 ng/ml. Samples not treated with bisindolymaleimide received an equivalent amount of the carrier, MeOH, as a control. […] The concentration of PMA tested was 10 ng/ml. Samples not receiving PMA received DMSO.
Once the flasks were prepared, they were incubated at 37° C. 5% CO2 for four hours. At the four hour timepoint, 300 μl of cells were removed from each flask and pelleted at 5000 rpm for 5 minutes. The cells were then resuspended in 6 ml PBS/1% BSA and 60 μl trypan blue.

[12] = tested on: Erythromycin-resistant strain; experiment: Bacterial screen for drug sensitivity, escape velocity; type: cell-based, Staphylococcus aureus; settings: 5 μg/ml Erythromycin
Protocol: (§3) In this experiment, escape velocity was measured over time in wild type Staphylococcus aureus and an Erythromycin-resistant strain. 5 μg/ml of Erythromycin was applied to both the wild type Staphylococcus aureus and an Erythromycin-resistant strain. Escape velocity measurements were taken at time zero, 30 minutes post-treatment, and 3 hours post-treatment. […] In this experiment, however, escape velocity measurements were made at time zero, 30 minutes post-treatment, and 1 hour post-treatment, and 2 hours post-treatment. A reduction in escape velocity of the Erythromycin-sensitive strain can be seen at 1 hour post-treatment.

[13] = tested on: wild type Staphylococcus aureus; experiment: as above; type: cell-based; settings: 5 μg/ml Erythromycin
Protocol: as §3

[14] = tested on: Jurkat cells; experiment: Escape velocity, TNF-α effect on Jurkat cells; type: cell-based; settings: TNF inhibitor added with TNF
Protocol: After 48 hours of incubation, the cells were removed and centrifuged for 5 minutes at 5,000 rpm. Then the cells were resuspended in PBS/1% BSA and trypan blue. A higher power setting, 140 mW instead of 100 mW, was used for this experiment. The escape velocities were measured as follows:
In this experiment Leflunomide and Silymarin were added with TNF to see if the anticipated increase in escape velocity measurements could be counteracted by the presence of the TNF inhibitors.

Compound: Cc1ccc(NC(=O)c2ccc(CN3CCN(C)CC3)cc2)cc1Nc1nccc(-c2cccnc2)n1 [Gleevec, imatinib mesylate]
mean travel distances as compared to non-treated controls (FIG. 41) [1]: lower mean travel distances
escape velocity as compared to non-treated cells (FIG. 40) [2]: significantly lower escape velocity

mean travel distance [3]: 20.97 μm
Compound: CC(=O)N1CCN(c2ccc(OCC3COC(Cn4ccnc4)(c4ccc(Cl)cc4Cl)O3)cc2)CC1 (stereo not shown) [ketoconazole]
escape velocity vs control (FIG. 46) [4]: marked decrease in escape velocity

Compound: O=C([O-])c1ccccc1O.[Na+] [Sodium Salicylate, Sodium salicylate]
shift in escape velocities (FIG. 37) ([5]; 5 mM and 20 mM, 5 and 24 hours): slight but statistically significant shift in escape velocities
Escape velocity Ave. ([5]; 5 mM, 5 hours): 14.1
Escape velocity Ave. ([5]; 5 mM, 24 hours): 15.2
Escape velocity Ave. ([5]; 5 mM, 47 hours): 13.7
Escape velocity Ave. ([5]; 20 mM, 5 hours): 13.3
Escape velocity Ave. ([5]; 20 mM, 24 hours): 16.0
cell viability (trypan blue) ([5]; 20 mM, 47 hours): all cells were dead

Compound: C[S+](C)[O-] [DMSO, dimethylsulfoxide]
time after treatment at which a change in CD11b expression levels was detected [6]: 40 h
time after treatment at which a noticeable decrease of the mean travel distance was detected [7]: ≤ 16 h

Compound: CC[C@@]1(O)C(=O)OCc2c1cc1n(c2=O)Cc2cc3c(CN(C)C)c(O)ccc3nc2-1 [topotecan]
less sensitive than parental cell line CCRF-CEM [8]: 970 fold
shift in escape velocity as compared to the camptothecin-treated cells (FIG. 54) ([9]; 4 μg/ml, four hours): larger shift in escape velocity
cellular debris ([9]; 10 μM and 20 μM topotecan, six hours): a significant amount of cellular debris was present
cell death ([9]; 10 μM topotecan, 24 hour): virtually all of the treated U937 cells were dead
dead or necrotic cells ([9]; 2.5, 5 and 10 μM topotecan, 4 hour): not a significant number of dead or necrotic cells
decrease in escape velocity as compared to the CEM/C2 cells (FIG. 67) [10]: larger decrease in escape velocity

Compound: CN(C)CCCn1cc(C2=C(c3c[nH]c4ccccc34)C(=O)NC2=O)c2ccccc21 [Bisindolymalemide, Bisindolymaleimide]
Escape velocity Ave. ([11]; 50 ng/ml bisindolymaleimide + 10 ng/ml PMA): 15.1 μm/sec
Escape velocity Ave. ([11]; 50 ng/ml bisindolymaleimide, no PMA): 13.9 μm/sec
effect on PMA-caused shift in escape velocity (FIG. 33) ([11]; 200 ng/ml BIMI for 30 minutes, then 10 ng/ml PMA): blocked the optophoretic shift in escape velocity
Escape velocity Ave. ([11]; 200 ng/ml bisindolymaleimide + 10 ng/ml PMA): 14.5 μm/sec
Escape velocity Ave. ([11]; 200 ng/ml bisindolymaleimide, no PMA): 14.0 μm/sec

Compound: CC[C@H]1OC(=O)[C@H](C)[C@@H](O[C@H]2C[C@@](C)(OC)[C@@H](O)[C@H](C)O2)[C@H](C)[C@@H](O[C@@H]2O[C@H](C)C[C@H](N(C)C)[C@H]2O)[C@](C)(O)C[C@@H](C)C(=O)[C@H](C)[C@@H](O)[C@]1(C)O [Erythromycin]
escape velocity (FIG. 80) [12]: same escape velocity as the untreated Erythromycin-sensitive strain
time post-treatment at which a reduction in escape velocity can be seen (FIG. 81) [13]: 1 h
change of escape velocity over time (FIG. 80) ([13]; time zero, 30 minutes, 3 hours): decreases

Compound: Cc1oncc1C(=O)Nc1ccc(C(F)(F)F)cc1 [Leflunomide]
effect on TNF-caused increase in escape velocity (FIG. 36) [14]: mitigate the increase in escape velocity caused by TNF
